Measurements reported in patent publication US10159265B2, “Feed composition for reducing ruminant methanogenesis” (priority 2012, dated 2018).
Entries after “also recorded” stand apart in the source; their conditions may differ. Marks after values point to notes of the source that are not given here.

Legend:
[1] = system: "in vitro" rumen fluid culture; experiment: Biogas production in "in vitro" rumen fluid culture (pressure meter); format: cell-based, calves; set-up: Average biogas production / Cumulative biogas production / Biogas production: unit not given here; conditions: Exp 1
[2] = system: methanogenic (archea) populations; experiment: Methane production in "in vitro" rumen fluid culture; format: cell-based, calves; set-up: Average methane production / Accumulated methane production / Methane production / Cumulative methane production: unit not given here; conditions: Exp 1
Outline: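 Rumen fluid from cannulated calves on a 90:10 concentrate ration incubated anaerobically at 39° C with flavonoids, 600 mg concentrate and 60 mg barley straw substrate in 10 ml rumen fluid plus 40 ml incubation medium. Gas pressure read at 2–48 h; triplicates in two batches, with methane share of total biogas assessed.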

[3] = system: "in vitro" ruminal fluid cultures; experiment: Volatile fatty acid concentration and molar proportions in "in vitro" ruminal fluid cultures; format: cell-based, calves
[4] = system: "in vitro" ruminal fluid cultures; experiment: Ammonia (N-NH3) concentration in "in vitro" ruminal fluid cultures; format: cell-based, calves
[5] = system: "in vitro" ruminal fluid culture; experiment: Lactate concentration in "in vitro" ruminal fluid culture; format: cell-based, calves; conditions: 12 hours of incubation
[6] = system: ruminal bacteria; experiment: Bacterial DNA concentration by qPCR; format: cell-based, calves; conditions: 12 hours of incubation
[7] = system: Streptococcus bovis; experiment: qPCR relative quantification of Streptococcus bovis; format: cell-based; conditions: 12 hours of incubation
[8] = system: Selenomonas ruminantium; experiment: qPCR relative quantification of Selenomonas ruminantium; format: cell-based; conditions: 12 hours of incubation
[9] = system: Megasphaera elsdenii; experiment: qPCR relative quantification of Megasphaera elsdenii; format: cell-based; conditions: 12 hours of incubation
[10] = system: "in vitro" ruminal fluid cultures; experiment: Ammonia (N-NH3) concentration in "in vitro" ruminal fluid cultures; format: cell-based, calves; conditions: 72 h
[11] = average over doses and incubation times
[12] = average over doses and incubation times, listed as neoeriocitrin

`C[C@@H]1O[C@@H](O[C@H]2[C@H](Oc3cc(O)c4c(c3)O[C@H](c3ccc(O)c(O)c3)CC4=O)O[C@H](CO)[C@@H](O)[C@@H]2O)[C@H](O)[C@H](O)[C@H]1O` [Neoeriocitrin] gave a Cumulative biogas production ([1]; 12 h incubation) of 211.78, a Cumulative biogas production ([1]; 24 h incubation) of 259.11 and a Cumulative biogas production ([1]; 48 h incubation) of 288.43. The Cumulative biogas production ([1]; 72 h incubation) was 307.80, the Biogas production ([1]; dose 1, 0.2 g/kg DM) was 277.08 and the Biogas production ([1]; dose 2, 0.5 g/kg DM) was 256.47. For the same compound, the “Dosage effect on methane proportion of biogas” value ([2]; 500 vs. 200 mg/kg DM) was “tended to depress methane production”, the Accumulated methane production ([2]; 12 h) was 29.65 and the “Proportion of methane in the produced biogas” value (“Proportion of methane” for short) ([2]; 12 h) was 14.00. For the same compound, the Accumulated methane production ([2]; 24 h) was 37.03, the “Proportion of methane” value ([2]; 24 h) was 15.75 and the Accumulated methane production ([2]; 48 h) was 41.74. The “Proportion of methane” value ([2]; 48 h) was 16.33, the Accumulated methane production ([2]; 72 h) was 45.18 and the “Proportion of methane” value ([2]; 72 h) was 18.19. For the same compound, the Average methane production [2, 11] was 38.40^a, the “Proportion of methane” value [2, 11] was 16.07^a and the Average methane production [2, 12] was “increased”. For the same compound, the “Proportion of methane” value [2, 12] was “significantly increased; also recorded: increased the methane proportion”, the Methane production ([2]; dose 1, 0.2 g/kg DM) was 39.51 and the “Proportion of methane” value ([2]; dose 1, 0.2 g/kg DM) was 15.96. The Methane production ([2]; dose 2, 0.5 g/kg DM) was 37.28, the “Proportion of methane” value ([2]; dose 2, 0.5 g/kg DM) was 16.17 and the “% Acetate, molar ratio” value ([3]; 0 h) was 62.51 mol/100 mol. The “% Butyrate, molar ratio” value ([3]; 0 h) was 9.07 mol/100 mol, the “% Propionate, molar ratio” value ([3]; 0 h) was 20.03 mol/100 mol and the “A/P rate (acetate/propionate)” value ([3]; 0 h) was 3.12. The VFA concentration ([3]; 0 h (initial constant value)) was 13.78 mmol/L, the “% Acetate, molar ratio” value ([3]; 12 h) was 55.73 mol/100 mol and the “% Butyrate, molar ratio” value ([3]; 12 h) was 11.84 mol/100 mol. The “% Propionate, molar ratio” value ([3]; 12 h) was 26.77 mol/100 mol, the “A/P rate (acetate/propionate)” value ([3]; 12 h) was 2.09 and the VFA concentration ([3]; 12 h) was 39.75 mmol/L. For the same compound, the “% Acetate, molar ratio” value ([3]; 72 h) was 56.21 mol/100 mol, the “% Butyrate, molar ratio” value ([3]; 72 h) was 11.79 mol/100 mol and the “% Propionate, molar ratio” value ([3]; 72 h) was 24.39 mol/100 mol. The “A/P rate (acetate/propionate)” value ([3]; 72 h) was 2.31, the VFA concentration ([3]; 72 h) was 53.75 mmol/L and the “% Acetate, molar ratio, average (μ)” value ([3]; average over incubation times) was 58.15 mol/100 mol. The “% Butyrate, molar ratio, average (μ)” value ([3]; average over incubation times) was 10.90 ^b mol/100 mol, the “% Propionate, molar ratio, average (M)” value ([3]; average over incubation times) was 23.73 ^a mol/100 mol and the “VFA concentration, average (μ)” value ([3]; average over incubation times) was 35.76 mmol/L. For the same compound, the “% Propionate, molar ratio, average (M)” value ([3]; average over incubation times, listed as neoeritrocin) was 23.7 mol/100 mol, the N-NH3 concentration ([4]; 0 h (initial constant value)) was 149.99 mg/L and the N-NH3 concentration ([4]; 12 h) was 186.19 mg/L. For the same compound, the “N-NH3 concentration, average (M)” value ([4]; average over incubation times) was 227.84 mg/L, the Lactate [5] was 122.5 mg/L and the “Bacteria DNA” value [6] was 13.14 ^a μg/ml. For the same compound, the “Relative Quantification 2^(ΔΔCt) S. bovis” value [7] was 0.62, the “Relative Quantification 2^(ΔΔCt) S. ruminantium” value [8] was 0.79 and the “Relative Quantification 2^(ΔΔCt) M. elsdenii” value [9] was 0.76 ^a. For the same compound, the N-NH3 concentration [10] was 347.34 mg/L.
